Measured values from patent publication US10919887B2, “Salts and solid forms of a monobactam antibiotic” (Novartis AG, priority 2015, dated 2021).
Values after ≈ are worked out from the molar mass of the structure shown.

What was measured:
[1] = Stability of Compound X and its salts in aqueous solution; type: physicochemical; details: in solution, before addition of arginine or other base
Text: It is important for a drug product to be stable enough to avoid significant degradation when it is shipped and stored under commercially practical conditions. The inventors have discovered that Compound X in solution is preferably used and stored at a pH between 4 and 6, preferably between 4.0 and 5.5, for maximum stability in the presence of moisture. Optimal solution stability is achieved at a pH of about 4.0 to 5.5 Accordingly, the invention provides pharmaceutical compositions comprising Compound X at a pH between 4 and 6, preferably between 4.0 and 5.5, and more preferably at a pH of about 5±0.5 or at pH of 5±0.2. Suitable compositions comprise Compound X in an aqueous solution, such as a dextrose or saline solution, which may be isotonic, and may contain other substances such as stabilizers, antioxidants, buffers or pH modifiers, nutrients, and the like. In some of these embodiments, the desired pH is achieved by combining Compound X and a pH modifier suitable to achieve the desired pH in an aqueous solution. Suitable pH modifiers include but are not limited to sodium hydroxide, sodium carbonate, sodium bicarbonate, potassium carbonate, potassium hydroxide, amines such as TRIS (tris(hydroxymethyl)aminomethane), and amino acids such as arginine, lysine, histidine, and the like. Known monobactams, including aztreonam, have been formulated with arginine. […]

[2] = Photochemical stability; type: physicochemical
Description: Compound X (500 mg) and L-arginine (332.5 mg) are combined in a vial. Saccharose (crystalline, pyrogen-free sucrose: 1000 mg) is added along with water suitable for injection (8.00 mL). The pH of the solution is adjusted, if necessary, using 1.0N HCl or 1.0N NaOH to arrive at a pH of 5.0±0.5, preferably a pH of 5.0±0.2. This provides a solution containing about 62.5 mg/mL of Compound X as an arginine salt. This solution can be filtered if necessary, and can be lyophilized to provide a white or off-white solid (lyophilizate). The lyophilized solid can be reconstituted with sterile water or a pharmaceutically acceptable aqueous carrier such as isotonic saline or dextrose to provide a solution suitable for intravenous administration. The lyophilizate should be stored in a container that excludes light to protect the lyophilizate from photodegradation. This process can be scaled up or down to provide unit dosages for storage and distribution, or bulk material that can be further processed as desired.
In one embodiment of the invention, Compound X is packaged in a container that substantially reduces exposure to light, preferably in an atmosphere at a relative humidity of 25-50% humidity and more preferably at a relative humidity of 30-40% or 30-45%.

[3] = system: E. coli NB27273-CDY0033 (KPC2); experiment: MIC by broth microdilution, isogenic E. coli expressing KPC2; type: cell-based; details: Escherichia coli, read-out: Inhibitory Concentration (MIC) Ec KPC2 Iso
Description: (§1) Bacterial isolates were cultivated from −70° C. frozen stocks by two consecutive overnight passages at 35° C. in ambient air on 5% blood agar (Remel, Lenexa, Kans.). Quality control and P. aeruginosa ATCC 27853) is from the American Type Culture Collection (ATCC; Rockville, Md.) and PAO1 was received from Dr. K. Poole.
Strain NB27273 (BW25113 pspB::Km^r) was obtained from the Keio transposon insertion collection. The strain has the pspB gene replaced by a kanamycin resistance marker (BW25113 pspB::Km^r). This strain was cured of the transposon in pspB via FLP recombinase using published methodology. The resulting strain, BW25113 pspB, was used as a host for multicopy vectors expressing key β-lactamases. Multicopy plasmids directing constitutive expression of β-lactamases were established as follows: Synthetic, codon optimized genes encoding E. coli KPC2 and SHV12-lactamases were made by DNA2.0 (Palo Alto, Calif.). Each of the synthetic fragments were designed to contain NotI and NcoI restriction sites at their termini, allowing ligation into a NotI/NcoI digested pET28a(+) derivative for protein expression. […]

[4] = system: E. coli strain 25922; experiment: MIC by broth microdilution, E. coli strain 25922; type: cell-based; details: Escherichia coli, salt: none, read-out: Inhibitory Concentration (MIC) Ec 25922
Description: as §1
Minimal Inhibitory Concentrations (MICs) were determined by the broth microdilution method in accordance with Clinical and Laboratories Institute (CLSI) guidelines. In brief, fresh overnight bacterial cultures were suspended in sterile saline, and adjusted to a 0.5 McFarland turbidity standard. Bacterial suspensions were then diluted in cation adjusted Mueller-Hinton Broth (MHB II; BBL) to yield a final inoculum of approximately 5×10^5 colony-forming units (CFU)/mL. A master plate of antibiotics was prepared at a concentration equivalent to hundred-fold the highest desired final concentration in 100% dimethyl sulfoxide (DMSO). […] The assay plates were read using a microtiter plate reader (Molecular Devices) at 600 nm as well as by visual observation with a reading mirror. The lowest concentration of the compound that prevented visible growth was recorded as the MIC. Performance of the assay was monitored by testing aztreonam against laboratory quality control strains in accordance with guidelines of the CLSI.

Nc1nc(/C(=N/OC2(C(=O)O)CC2)C(=O)N[C@@H]2C(=O)N(S(=O)(=O)O)[C@@H]2CN2CCOC2=O)cs1 [Compound X, 1-(((Z)-(1-(2-aminothiazol-4-yl)-2-oxo-2-(((3S,4R)-2-oxo-4-((2-oxooxazolidin-3-yl)methyl)-1-sulfoazetidin-3-yl)amino)ethylidene)amino)oxy)cyclopropanecarboxylic acid]
hydrolytic stability in water [1]: subject to hydrolytic degradation in water in the absence of a base or outside the pH range of 4-6 | photochemical stability [2]: degrade photochemically | MIC [3]: 125 µg/mL (≈ 241 µM) | MIC [4]: 250 µg/mL
